In PubChem BioAssay (NCI):
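Values below derive from 48-hour exposures of cells grown in 96-well plates, with endpoints linearly interpolated between the two concentrations bracketing the appropriate inhibition level. TGI denotes the concentration required for complete inhibition of growth.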

Experiments:
Experiment in all cases: NCI-60 cell line screen, 48 h
SF-295 CNS = test system: SF-295 CNS
HOP-62 NSCLC = test system: HOP-62 NSCLC
SNB-19 CNS = test system: SNB-19 CNS
SK-MEL-2 melanoma = test system: SK-MEL-2 melanoma
MALME-3M melanoma = test system: MALME-3M melanoma
HL-60(TB) leukemia = test system: HL-60(TB) leukemia
NCI/ADR-RES ovarian = test system: NCI/ADR-RES ovarian
OVCAR-3 ovarian = test system: OVCAR-3 ovarian
HCC-2998 colon = test system: HCC-2998 colon
ACHN renal = test system: ACHN renal
HT29 colon = test system: HT29 colon
RPMI-8226 leukemia = test system: RPMI-8226 leukemia
T-47D breast = test system: T-47D breast
HCT-15 colon = test system: HCT-15 colon
MDA-N = test system: MDA-N
SK-OV-3 ovarian = test system: SK-OV-3 ovarian
SF-268 CNS = test system: SF-268 CNS
M14 melanoma = test system: M14 melanoma

| SMILES | TGI (SF-295 CNS) [µM] | TGI (HOP-62 NSCLC) [µM] | TGI (SNB-19 CNS) [µM] | TGI (SK-MEL-2 melanoma) [µM] | TGI (MALME-3M melanoma) [µM] | TGI (HL-60(TB) leukemia) [µM] | TGI (NCI/ADR-RES ovarian) [µM] | TGI (OVCAR-3 ovarian) [µM] | TGI (HCC-2998 colon) [µM] | TGI (ACHN renal) [µM] | TGI (HT29 colon) [µM] | TGI (RPMI-8226 leukemia) [µM] | TGI (T-47D breast) [µM] | TGI (HCT-15 colon) [µM] | TGI (MDA-N) [µM] | TGI (SK-OV-3 ovarian) [µM] | TGI (SF-268 CNS) [µM] | TGI (M14 melanoma) [µM] |
| --- | --- | --- | --- | --- | --- | --- | --- | --- | --- | --- | --- | --- | --- | --- | --- | --- | --- | --- |
| COc1c(C(=O)/C(=N/Nc2ccccc2)C(C)=O)c(O)c(OC)c2occc12 | > 100 | > 100 | > 100 | > 100 | 92 | > 100 | > 100 | > 100 | > 100 | > 100 | > 100 | > 100 | > 100 | > 100 | > 100 | > 100 | > 100 | > 100 |
| COc1ccc(-c2nc(N)c(C#N)c3c2CCSc2ccc(C)cc2-3)cc1OC | > 100 | > 100 | > 83.5 | > 75.6 | > 100 | 17.7 | > 58 | > 100 | > 57.8 | > 73.9 | > 53.1 | 7.09 | > 31.5 | > 73.1 | > 45.5 | > 95.1 | 93.9 | > 100 |
| CC(C)=CCC[C@](C)(O)[C@H]1CC[C@]2(C)[C@@H]1[C@H](O)C[C@@H]1[C@@]3(C)CC[C@H](O[C@@H]4O[C@H](CO)[C@@H](O)[C@H](O)[C@H]4O)C(C)(C)[C@@H]3CC[C@]12C | 39.6 | 47.8 | 35.4 | 29.7 | 34.6 | 45.8 | 55.1 | 32 | 49.4 | 32.9 | 32.5 | 38.8 | 34 | 32.8 | 36.3 | 33 | 29.3 | 46 |
| CC(=O)c1c2c(cc3c1CC1(Cc4cc5c(cc4C1=O)CCC5)C3)CCC2 (stereo not given) | > 100 | > 100 | > 100 | > 100 | > 100 | > 59.4 | > 100 | > 100 | > 100 | > 100 | > 100 | > 92.9 | > 100 | > 100 | > 100 | > 100 | > 100 | > 100 |
| CCCCCCc1cc2cc(C(=O)Nc3ccccc3F)c(=N)oc2cc1O | 33 | 31.8 | 56.2 | 26.8 | 57.6 | 31.9 | 16.8 | 25.9 | 48.1 | 25.6 | 62.9 | > 100 | 12.4 | 22.3 | 24 | 29.3 | 59.9 | 28.7 |
